{"source": "paper PMC10728955", "about": "(RSC Advances, 2023)", "key": {"MCF-7 cells [1]": {"tested_on": "MCF-7 cells", "assay": "cells", "conditions": "Homo sapiens, MCF7, read-out: In vitro cytotoxicity IC50, MCF-7"}, "HepG2 cells": {"tested_on": "HepG2 cells", "assay": "cells", "conditions": "Homo sapiens, HepG2, read-out: In vitro cytotoxicity IC50, HepG2"}, "[2]": {"tested_on": "normal human lung cells (WI-38)", "assay": "cells", "conditions": "WI-38, read-out: WI-38 IC50"}, "Bcl-2": {"tested_on": "Bcl-2", "assay_type": "cell-based", "conditions": "MCF-7, 0.04 μM"}, "MCF-7 cells [3]": {"tested_on": "MCF-7 cells", "assay": "Cell cycle analysis by flow cytometry", "assay_type": "cell-based", "conditions": "0.041 μM, 72 h"}, "MCF-7 cells [4]": {"tested_on": "MCF-7 cells", "assay": "Cell migration and scratch wound healing assay", "assay_type": "cell-based"}, "MCF-7 cells [5]": {"tested_on": "MCF-7 cells", "assay": "Apoptosis assay, annexin V-FITC/PI", "assay_type": "cell-based", "conditions": "0.04 μM, 72 h"}, "[6]": {"tested_on": "normal human lung cells (WI-38)", "conditions": "WI-38 versus HepG2"}, "Human VEGFR-2": {"target": "Human VEGFR-2 (Homo sapiens, UniProt P35968)", "sequence (P35968 20-1356)": "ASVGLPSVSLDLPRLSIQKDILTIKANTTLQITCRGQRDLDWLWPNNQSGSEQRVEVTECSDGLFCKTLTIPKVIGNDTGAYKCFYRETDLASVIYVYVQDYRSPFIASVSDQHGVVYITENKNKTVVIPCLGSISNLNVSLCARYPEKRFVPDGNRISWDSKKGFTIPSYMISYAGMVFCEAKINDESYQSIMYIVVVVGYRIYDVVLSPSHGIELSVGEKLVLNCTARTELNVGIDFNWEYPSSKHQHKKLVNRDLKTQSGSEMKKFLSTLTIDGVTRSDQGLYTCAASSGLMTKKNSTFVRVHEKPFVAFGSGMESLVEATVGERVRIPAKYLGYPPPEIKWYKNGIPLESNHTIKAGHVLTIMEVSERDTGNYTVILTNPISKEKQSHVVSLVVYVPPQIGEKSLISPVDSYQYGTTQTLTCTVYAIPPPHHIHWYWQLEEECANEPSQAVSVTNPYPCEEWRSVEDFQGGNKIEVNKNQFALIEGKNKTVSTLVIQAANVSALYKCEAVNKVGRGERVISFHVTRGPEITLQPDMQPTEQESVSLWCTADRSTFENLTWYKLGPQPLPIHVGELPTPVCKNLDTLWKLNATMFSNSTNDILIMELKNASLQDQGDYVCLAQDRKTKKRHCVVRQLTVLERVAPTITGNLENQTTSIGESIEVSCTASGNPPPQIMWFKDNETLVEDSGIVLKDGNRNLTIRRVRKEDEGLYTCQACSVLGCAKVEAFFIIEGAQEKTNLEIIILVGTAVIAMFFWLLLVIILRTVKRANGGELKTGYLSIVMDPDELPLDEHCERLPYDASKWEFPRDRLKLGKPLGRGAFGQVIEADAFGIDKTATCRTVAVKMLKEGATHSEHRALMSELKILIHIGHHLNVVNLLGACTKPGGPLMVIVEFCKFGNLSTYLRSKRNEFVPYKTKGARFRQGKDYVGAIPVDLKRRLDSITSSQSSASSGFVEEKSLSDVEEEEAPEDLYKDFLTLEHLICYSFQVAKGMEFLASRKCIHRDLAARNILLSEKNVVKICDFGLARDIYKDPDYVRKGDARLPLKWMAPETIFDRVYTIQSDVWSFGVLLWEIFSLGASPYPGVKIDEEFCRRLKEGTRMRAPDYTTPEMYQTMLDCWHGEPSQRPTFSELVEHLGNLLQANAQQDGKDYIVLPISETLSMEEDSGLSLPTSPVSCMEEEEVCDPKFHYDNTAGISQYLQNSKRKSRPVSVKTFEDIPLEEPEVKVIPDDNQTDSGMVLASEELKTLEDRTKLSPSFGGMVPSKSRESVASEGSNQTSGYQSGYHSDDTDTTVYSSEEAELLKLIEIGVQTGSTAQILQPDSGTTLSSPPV", "assay": "In vitro VEGFR-2 inhibition, VEGFR-2 ELISA kit", "assay_type": "biochemical"}}, "data": [{"smiles": "CNC(=O)c1cc(Oc2ccc(NC(=O)Nc3ccc(Cl)c(C(F)(F)F)c3)cc2)ccn1", "note": "[Sorafenib, reference compound]", "values": [{"measurement": "IC50", "setting": "MCF-7 cells [1]", "value": "150 ± 13", "unit": "nM"}, {"measurement": "IC50", "setting": "HepG2 cells", "value": "140 ± 52", "unit": "nM"}]}, {"smiles": "COc1ccc(-n2nc(C(C)=O)s/c2=N\\N=C(/C)c2ccc(NC(C)=O)cc2)cc1", "note": "[Compound 14, N-(4-((E)-1-(((Z)-5-acetyl-3-(4-methoxyphenyl)-1,3,4-thiadiazol-2(3H)-ylidene)hydrazineylidene)ethyl)phenyl)acetamide]", "values": [{"measurement": "IC50", "setting": "[2]", "value": 140, "unit": "nM"}, {"measurement": "Lowering of Bcl-2 level versus control", "setting": "Bcl-2", "value": 6.2, "unit": "fold"}, {"measurement": "RT-PCR fold change, Bcl2", "setting": "Bcl-2; control = 1", "value": 0.159, "unit": "fold"}, {"measurement": "IC50", "setting": "MCF-7 cells [1]", "value": "40 ± 9", "unit": "nM"}, {"measurement": "Cell cycle distribution (%) G0–G1", "setting": "MCF-7 cells [3]", "value": 68.43, "unit": "%"}, {"measurement": "Cell cycle distribution (%) G2/M", "setting": "MCF-7 cells [3]", "value": 9.3, "unit": "%"}, {"measurement": "Cell cycle distribution (%) S", "setting": "MCF-7 cells [3]", "value": 22.27, "unit": "%"}, {"measurement": "Increase of cell population at G0–G1 phase versus control", "setting": "MCF-7 cells [3]", "value": 1.09, "unit": "fold"}, {"measurement": "Area difference (%)", "setting": "MCF-7 cells [4]; MCF-7, after 48 h", "value": 361.667, "unit": "%"}, {"measurement": "RM (rate of migration)", "setting": "MCF-7 cells [4]; MCF-7, after 48 h", "value": 7.532, "unit": "μm"}, {"measurement": "Wound area at 0 h", "setting": "MCF-7 cells [4]; MCF-7 scratch assay", "value": 933.000, "unit": "μm^2"}, {"measurement": "Wound area at 24 h", "setting": "MCF-7 cells [4]; MCF-7 scratch assay", "value": 836.333, "unit": "μm^2"}, {"measurement": "Wound area at 48 h", "setting": "MCF-7 cells [4]; MCF-7 scratch assay", "value": 571.333, "unit": "μm^2"}, {"measurement": "Wound width at 0 h", "setting": "MCF-7 cells [4]; MCF-7 scratch assay", "value": 932.006, "unit": "μm"}, {"measurement": "Wound width at 24 h", "setting": "MCF-7 cells [4]; MCF-7 scratch assay", "value": 835.443, "unit": "μm"}, {"measurement": "Wound width at 48 h", "setting": "MCF-7 cells [4]; MCF-7 scratch assay", "value": 570.472, "unit": "μm"}, {"measurement": "Early apoptosis (%)", "setting": "MCF-7 cells [5]", "value": 16.53, "unit": "%"}, {"measurement": "Late apoptosis (%)", "setting": "MCF-7 cells [5]", "value": 29.57, "unit": "%"}, {"measurement": "Necrosis (%)", "setting": "MCF-7 cells [5]", "value": 5.95, "unit": "%"}, {"measurement": "Necrosis percentage enhancement versus control", "setting": "MCF-7 cells [5]", "value": "four-fold"}, {"measurement": "Total apoptosis (%)", "setting": "MCF-7 cells [5]", "value": 52.05, "unit": "%"}, {"measurement": "Total apoptosis enhancement versus control", "setting": "MCF-7 cells [5]", "value": 22, "unit": "fold"}, {"measurement": "Selectivity index, HepG2", "setting": "[6]", "value": "~1.28"}, {"measurement": "IC50", "setting": "HepG2 cells", "value": "180 ± 6", "unit": "nM"}, {"measurement": "IC50", "setting": "Human VEGFR-2; VEGFR-2 IC50, as printed in section 3.2.3", "value": 243, "unit": "nM"}, {"measurement": "IC50", "setting": "Human VEGFR-2; VEGFR-2 IC50, as printed in the abstract", "value": 103, "unit": "nM"}]}, {"smiles": "COc1ccc(-n2nc(C(C)=O)s/c2=N\\N=C(/C)c2ccc(NC(=O)c3ccc(Cl)cc3)cc2)cc1", "note": "[Compound 18c, N-(4-((E)-1-(((Z)-5-Acetyl-3-(4-methoxyphenyl)-1,3,4-thiadiazol-2(3H)-ylidene) hydrazono)ethyl)phenyl)-4-chlorobenzamide]", "values": [{"measurement": "IC50", "setting": "MCF-7 cells [1]", "value": "190 ± 14", "unit": "nM"}, {"measurement": "IC50", "setting": "HepG2 cells", "value": "160 ± 32", "unit": "nM"}]}, {"smiles": "CC(=O)c1nn(-c2ccc(Cl)cc2)/c(=N/N=C(\\C)c2ccc(NC(=O)c3ccc(Cl)cc3)cc2)s1", "note": "[Compound 18d, N-(4-((E)-1-(((Z)-5-Acetyl-3-(4-chlorophenyl)-1,3,4-thiadiazol-2(3H)-ylidene) hydrazono)ethyl)phenyl)-4-chlorobenzamide]", "values": [{"measurement": "IC50", "setting": "MCF-7 cells [1]", "value": "5000 ± 192", "unit": "nM"}, {"measurement": "IC50", "setting": "HepG2 cells", "value": "6170 ± 19", "unit": "nM"}]}, {"smiles": "CC(=O)c1nn(-c2ccc(Cl)cc2)/c(=N/N=C(\\C)c2ccc(NC(=O)c3ccccc3)cc2)s1", "note": "[Compound 18b, N-(4-((E)-1-(((Z)-5-Acetyl-3-(4-chlorophenyl)-1,3,4-thiadiazol-2(3H)-ylidene) hydrazono)ethyl)phenyl) benzamide]", "values": [{"measurement": "IC50", "setting": "MCF-7 cells [1]", "value": "220 ± 98", "unit": "nM"}, {"measurement": "IC50", "setting": "HepG2 cells", "value": "200 ± 11", "unit": "nM"}]}, {"smiles": "COc1ccc(-n2nc(C(C)=O)s/c2=N\\N=C(/C)c2ccc(NC(=O)c3ccc(C)cc3)cc2)cc1", "note": "[Compound 18e, N-(4-((E)-1-(((Z)-5-Acetyl-3-(4-methoxyphenyl)-1,3,4-thiadiazol-2(3H)-ylidene) hydrazono)ethyl)phenyl)-4-methylbenzamide]", "values": [{"measurement": "IC50", "setting": "MCF-7 cells [1]", "value": "190 ± 45", "unit": "nM"}, {"measurement": "IC50", "setting": "HepG2 cells", "value": "210 ± 45", "unit": "nM"}]}, {"smiles": "COc1ccc(-n2nc(C(C)=O)s/c2=N\\N=C(/C)c2ccc(NC(=O)c3ccccc3)cc2)cc1", "note": "[Compound 18a, N-(4-((E)-1-(((Z)-5-Acetyl-3-(4-methoxyphenyl)-1,3,4-thiadiazol-2(3H)-ylidene) hydrazono)ethyl)phenyl) benzamide]", "values": [{"measurement": "IC50", "setting": "MCF-7 cells [1]", "value": "160 ± 17", "unit": "nM"}, {"measurement": "IC50", "setting": "HepG2 cells", "value": "800 ± 12", "unit": "nM"}]}, {"smiles": "CC(=O)c1nn(-c2ccc(Cl)cc2)/c(=N/N=C(\\C)c2ccc(NC(=O)c3ccc(C)cc3)cc2)s1", "note": "[Compound 18f, N-(4-((E)-1-(((Z)-5-Acetyl-3-(4-chlorophenyl)-1,3,4-thiadiazol-2(3H)-ylidene) hydrazono)ethyl)phenyl)-4-methylbenzamide]", "values": [{"measurement": "IC50", "setting": "MCF-7 cells [1]", "value": "440 ± 65", "unit": "nM"}, {"measurement": "IC50", "setting": "HepG2 cells", "value": "180 ± 18", "unit": "nM"}]}]}
